Results: patent publication US7825123B2, “Isoxazolo[4,5]pyridin-3-yl-piperazin derivatives useful as modulators of dopamine D3 receptors” (Hoffmann-La Roche Inc., priority 2008, dated 2010)

biological target: T1, human D3 dopamine receptor (Homo sapiens, UniProt P35462); assay: radioligand binding ([3H]-spiperone) to cloned human D3 receptors expressed in HEK-293 EBNA cells; conditions: [3H]-spiperone approx. 0.5 nM, HEK-293 EBNA membranes, 1 h at RT; Ki by Cheng-Prusoff
T1 construct: expressed in transfected cells; host or cells: HEK-293 EBNA cells, transient transfection; membrane preparation
T1 sequence (P35462 whole entry): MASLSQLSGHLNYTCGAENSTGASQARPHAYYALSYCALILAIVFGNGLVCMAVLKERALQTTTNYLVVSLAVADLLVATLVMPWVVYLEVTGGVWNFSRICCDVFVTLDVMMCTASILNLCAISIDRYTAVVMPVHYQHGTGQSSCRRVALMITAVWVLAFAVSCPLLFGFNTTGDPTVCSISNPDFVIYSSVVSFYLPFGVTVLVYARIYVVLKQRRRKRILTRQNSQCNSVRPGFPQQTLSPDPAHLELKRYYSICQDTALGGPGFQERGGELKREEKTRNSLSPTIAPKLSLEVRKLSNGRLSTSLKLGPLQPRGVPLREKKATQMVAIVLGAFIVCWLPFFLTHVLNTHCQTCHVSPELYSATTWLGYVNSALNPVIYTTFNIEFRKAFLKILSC
Description: The cells were harvested 48 h post-transfection, washed three times with cold PBS and stored at −80° C. prior to use. The pellet was suspended in cold 50 mM Tris-HCl buffer containing 10 mM EDTA (pH 7.4) and homogenized with a Polytron (Kinematica AG, Basel, Switzerland) for 20-30 sec at 12.000 rpm. After centrifugation at 48.000×g for 30 min at 4° C., the pellet was resuspended in cold 10 mM Tris-HCl buffer containing 0.1 mM EDTA (pH 7.4), homogenized, and centrifuged as above. This pellet was further resuspended in a smaller volume of ice cold 10 mM Tris-HCl buffer containing 0.1 mM EDTA (pH 7.4) and homogenized with a Polytron for 20-30 sec at 12.000 rpm. The protein content of this homogenate was determined with the Bio-Rad (Bradford) Protein Assay (Biorad Laboratories GmbH, München, Germany) according to the instructions of the manufacturer using gamma globulin as the standard. This homogenate was stored at −80° C. in aliquots and thawed immediately prior to use.
Aliquots of membrane preparations were thawed at RT, resuspended in assay buffer (50 mM Tris-HCl, 120 mM NaCl, 5 mM MgCl2, 1 mM EDTA, 5 mM KCl, 1.5 mM CaCl2, pH=7.4), homogenized with a Polytron for 20-30 sec at 12.000 rpm and adjusted to a final concentration of approximately 7.5 μg protein/well.
The binding affinity (Ki) of the compounds was determined using radioligand binding. Membranes were incubated in a total volume of 200 μl with a fixed concentration of radioligand (final concentration approximately 0.5 nM [^3H]-spiperone) and ten concentrations of test compound in ranging between 10 μM-0.1 nM for 1 h at RT. […] The nonspecific binding was determined with equally composed reaction mixtures in the presence of 10 μM unlabelled spiperone. Per well 45 μl of Microscint 40 (Perkin Elmer, Schwerzenbach, Switzerland) was added, plates for sealed, shaken for 20 min and counted for 3 min on a Topcount Microplate Scintillation Counter (Canberra Packard SA, Zürich, Switzerland) with quenching correction.
The CPM value for each duplicate of a concentration of competing compound was averaged (y1), then the % specific binding was calculated according to the equation (((y1−non-specific)/(total binding−non-specific))×100). Graphs were plotted with the % specific binding using XLfit, a curve fitting program that iteratively plots the data using Levenburg Marquardt algorithm. The single site competition analysis equation used was y=A+((B−A)/(1+((x/C)^D))), where y is the % specific binding, A is the minimum y, B is the maximum y, C is the IC50, x is the log10 of the concentration of the competing compound and D is the slope of the curve (the Hill Coefficient). […] The affinity constant (Ki) was calculated using the Cheng-Prusoff equation Ki=(IC50/1+([L]/Kd), where [L] is the concentration of radioligand and Kd is the dissociation constant of the radioligand at the receptor as determined by the saturation isotherm.

SMILES	Ki [nM]
O=C(N[C@H]1CC[C@H](CCN2CCN(c3noc4ccncc34)CC2)CC1)c1ccc(F)nc1 [Example 7, 6-Fluoro-N-{trans-4-[2-(4-isoxazolo[4,5-c]pyridin-3-yl-piperazin-1-yl)-ethyl]-cyclohexyl}-nicotinamide]	63
O=C(CF)N[C@H]1CC[C@H](CCN2CCN(c3noc4ccncc34)CC2)CC1 [Example 5, 2-Fluoro-N-{trans-4-[2-(4-isoxazolo[4,5-c]pyridin-3-yl-piperazin-1-yl)-ethyl]-cyclohexyl}-acetamide]	43
O=C(N[C@H]1CC[C@H](CCN2CCN(c3noc4ccncc34)CC2)CC1)c1ccc(F)cc1 [Example 6, 4-Fluoro-N-{trans-4-[2-(4-isoxazolo[4,5-c]pyridin-3-yl-piperazin-1-yl)-ethyl]-cyclohexyl}-benzamide]	97
CC(=O)N[C@H]1CC[C@H](CCN2CCN(c3noc4ccncc34)CC2)CC1 [Example 1, N-{trans-4-[2-(4-Isoxazolo[4,5-c]pyridin-3-yl-piperazin-1-yl)-ethyl]-cyclohexyl}-acetamide]	40.4

Now those with a lower Ki, led by results:

Ki [nM]	SMILES
24.3	COCCC(=O)N[C@H]1CC[C@H](CCN2CCN(c3noc4ccncc34)CC2)CC1 [Example 2, N-{trans-4-[2-(4-Isoxazolo[4,5-c]pyridin-3-yl-piperazin-1-yl)-ethyl]-cyclohexyl}-3-methoxy-propionamide]
15.4	O=C(CC1CC1)N[C@H]1CC[C@H](CCN2CCN(c3noc4ccncc34)CC2)CC1 [Example 4, 2-Cyclopropyl-N-{trans-4-[2-(4-isoxazolo[4,5-c]pyridin-3-yl-piperazin-1-yl)-ethyl]-cyclohexyl}-acetamide]
12.4	CCC(=O)N[C@H]1CC[C@H](CCN2CCN(c3noc4ccncc34)CC2)CC1 [Example 3, N-{trans-4-[2-(4-Isoxazolo[4,5-c]pyridin-3-yl-piperazin-1-yl)-ethyl]-cyclohexyl}-propionamide]
